Assay results: patent US9346786B2, “Pyrrolidine compounds” (Hoffmann-La Roche Inc., priority 2009, dated 2016)

Target: recombinant human NK3 receptor (Homo sapiens (Human), UniProt P29371)
Sequence (P29371 whole entry): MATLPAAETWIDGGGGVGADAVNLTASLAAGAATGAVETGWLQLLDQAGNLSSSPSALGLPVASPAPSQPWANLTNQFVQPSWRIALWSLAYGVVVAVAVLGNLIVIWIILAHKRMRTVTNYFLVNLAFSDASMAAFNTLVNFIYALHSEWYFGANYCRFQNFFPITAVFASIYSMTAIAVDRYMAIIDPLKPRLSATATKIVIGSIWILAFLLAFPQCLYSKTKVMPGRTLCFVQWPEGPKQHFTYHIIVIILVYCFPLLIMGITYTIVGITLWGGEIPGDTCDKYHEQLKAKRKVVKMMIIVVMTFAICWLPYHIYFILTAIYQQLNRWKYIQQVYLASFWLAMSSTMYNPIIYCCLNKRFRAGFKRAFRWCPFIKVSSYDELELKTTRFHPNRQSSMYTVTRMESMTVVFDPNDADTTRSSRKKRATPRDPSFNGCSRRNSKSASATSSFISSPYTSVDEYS
Experiment: biochemical
Assay type: binding
Conditions: not given
`CCN(C(=O)Oc1ccc(F)cc1)[C@@H]1CN(C(=O)C2CCN(c3ccc(C(N)=O)cn3)CC2)C[C@H]1c1ccc(Cl)c(F)c1` [Example 109, [(3S,4R)-1-(5′-Carbamoyl-3,4,5,6-tetrahydro-2H-[1,2′]bipyridinyl-4-carbonyl)-4-(4-chloro-3-fluoro-phenyl)-pyrrolidin-3-yl]-ethyl-carbamic acid 4-fluoro-phenyl ester] showed a Ki of 1.7 nM.

Same assay, conditions: [3H]SR142801, membranes of HEK293 cells transiently expressing recombinant human NK3 receptor; read-out: Data Ki (hNK-3 receptor affinity)
With `CCN(C(=O)Oc1ccc(F)cc1)[C@@H]1CN(C(=O)C2CCN(C(=O)c3ccc(F)cn3)CC2)C[C@H]1c1ccc(Cl)c(F)c1` [Example 75, {(3S,4R)-4-(4-Chloro-3-fluoro-phenyl)-1-[1-(5-fluoro-pyridine-2-carbonyl)-piperidine-4-carbonyl]-pyrrolidin-3-yl}-ethyl-carbamic acid 4-fluoro-phenyl ester] the Ki was 3 nM.
For `CCN(C(=O)Oc1ccc(F)cc1)[C@@H]1CN(C(=O)C2CCN(C(=O)C3CC(F)C3)CC2)C[C@H]1c1ccc(Cl)c(F)c1` (stereo partly drawn) [Example 69, {(3S,4R)-4-(4-Chloro-3-fluoro-phenyl)-1-[1-(3-fluoro-cyclobutanecarbonyl)-piperidine-4-carbonyl]-pyrrolidin-3-yl}-ethyl-carbamic acid 4-fluoro-phenyl ester], the Ki was 2 nM.
`CCN(C(=O)Oc1ccc(F)cc1)[C@@H]1CN(C(=O)C2CCN(c3ccc(C(C)=O)cn3)CC2)C[C@H]1c1ccc(Cl)cc1` [Example 14, [(3S,4R)-1-(5′-Acetyl-3,4,5,6-tetrahydro-2H-[1,2′]bipyridinyl-4-carbonyl)-4-(4-chloro-phenyl)-pyrrolidin-3-yl]-ethyl-carbamic acid 4-fluoro-phenyl ester] showed a Ki of 3 nM.
In the case of `CCN(C(=O)Oc1ccc(F)cc1)[C@@H]1CN(C(=O)C2CCN(c3ccc(C#N)nn3)CC2)C[C@H]1c1ccc(Cl)cc1` [Example 18, {(3S,4R)-4-(4-Chloro-phenyl)-1-[1-(6-cyano-pyridazin-3-yl)-piperidine-4-carbonyl]-pyrrolidin-3-yl}-ethyl-carbamic acid 4-fluoro-phenyl ester], the Ki is reported as 2 nM.
Molecule `CCN(C(=O)Oc1ccc(F)cc1)[C@@H]1CN(C(=O)C2CCN(c3ccc(C#N)nc3)CC2)C[C@H]1c1ccc(F)c(F)c1` [Example 51, [(3S,4R)-1-(6′-Cyano-3,4,5,6-tetrahydro-2H-[1,3′]bipyridinyl-4-carbonyl)-4-(3,4-difluoro-phenyl)-pyrrolidin-3-yl]-ethyl-carbamic acid 4-fluoro-phenyl ester] has a Ki of 2 nM.
With `CC(C)N(C(=O)Oc1ccc(F)cc1)[C@@H]1CN(C(=O)C2CCN(C(=O)C3(C)CC3)CC2)C[C@H]1c1ccc(Cl)c(Cl)c1` (racemic) [Example 2, rac-{(3S,4R)-4-(3,4-Dichloro-phenyl)-1-[1-(1-methyl-cyclopropanecarbonyl)-piperidine-4-carbonyl]-pyrrolidin-3-yl}-isopropyl-carbamic acid 4-fluoro-phenyl ester] the Ki was 46 nM.
Work on `CCN(C(=O)Oc1ccc(F)cc1)[C@H]1CN(C(=O)C2CCN(c3ccc(C(C)=O)cn3)CC2)C[C@@H]1c1ccc(Cl)cc1` [Example 8, [(3R,4S)-1-(5′-Acetyl-3,4,5,6-tetrahydro-2H-[1,2′]bipyridinyl-4-carbonyl)-4-(4-chloro-phenyl)-pyrrolidin-3-yl]-ethyl-carbamic acid 4-fluoro-phenyl ester] yielded a Ki of 55 nM.
In the case of `CCN(C(=O)Oc1ccc(F)cc1)[C@@H]1CN(C(=O)C2CCN(c3ccc(Cl)cn3)CC2)C[C@H]1c1ccc(F)c(Cl)c1` [Example 118, [(3S,4R)-4-(3-Chloro-4-fluoro-phenyl)-1-(5′-chloro-3,4,5,6-tetrahydro-2H-[1,2′]bipyridinyl-4-carbonyl)-pyrrolidin-3-yl]-ethyl-carbamic acid 4-fluoro-phenyl ester], the Ki is reported as 1.8 nM.
`CCN(C(=O)Oc1ccc(F)cc1)[C@@H]1CN(C(=O)C2CCN(c3ccc(C#N)cn3)CC2)C[C@H]1c1ccc(F)cc1` [Example 35, [(3S,4R)-1-(5′-Cyano-3,4,5,6-tetrahydro-2H-[1,2′]bipyridinyl-4-carbonyl)-4-(4-fluoro-phenyl)-pyrrolidin-3-yl]-ethyl-carbamic acid 4-fluoro-phenyl ester] gave a Ki of 4 nM.
`CCN(C(=O)Oc1ccc(F)cc1)[C@@H]1CN(C(=O)C2CCN(C(=O)C3(C(F)(F)F)CCC3)CC2)C[C@H]1c1ccc(Cl)c(F)c1` [Example 68, {(3S,4R)-4-(4-Chloro-3-fluoro-phenyl)-1-[1-(1-trifluoromethyl-cyclobutanecarbonyl)-piperidine-4-carbonyl]-pyrrolidin-3-yl}-ethyl-carbamic acid 4-fluoro-phenyl ester] showed a Ki of 2 nM.

Same assay, conditions: read-out: Data Ki (hNK-3 receptor affinity)
In the case of `CCN(C(=O)Oc1ccc(F)cc1)[C@@H]1CN(C(=O)C2CCN(C(=O)C3CC(F)C3)CC2)C[C@H]1c1ccc(Cl)cc1` (stereo partly drawn) [Example 89, {(3S,4R)-4-(4-Chloro-phenyl)-1-[1-(3-fluoro-cyclobutanecarbonyl)-piperidine-4-carbonyl]-pyrrolidin-3-yl}-ethyl-carbamic acid 4-fluoro-phenyl ester], the Ki is reported as 3.3 nM.
In the case of `CCN(C(=O)Oc1ccc(F)cc1)[C@@H]1CN(C(=O)C2CCN(C(=O)C3(COC)CC3)CC2)C[C@H]1c1ccc(Cl)cc1` [Example 99, {(3S,4R)-4-(4-Chloro-phenyl)-1-[1-(1-methoxymethyl-cyclopropanecarbonyl)-piperidine-4-carbonyl]-pyrrolidin-3-yl}-ethyl-carbamic acid 4-fluoro-phenyl ester], the Ki is reported as 4.7 nM.

Tested on: not given
Experiment: not given
Conditions: phase II trial; cited from earlier work
For `CC(=O)N(C)C1(c2ccccc2)CCN(CCC[C@]2(c3ccc(Cl)c(Cl)c3)CCCN(C(=O)c3ccccc3)C2)CC1` [SR 142,801, Osanetant], the “activity on negative symptoms of schizophrenia” value is given as “inactive in the treatment of negative symptoms” and the “activity on positive symptoms of schizophrenia” value is given as “active on positive symptoms of schizophrenia”.
